Test results: patent US11339161B2, “Triazolo pyridines as modulators of gamma-secretase” (Boehringer Ingelheim International GmbH, priority 2017, dated 2022)
Like-named read-outs stand apart in the source and are kept apart here.

Legend:
[1] = target: CSF1R (FMS) (Homo sapiens, UniProt P07333); test: Z'-LYTE SelectScreen biochemical kinase assay CSF1R (FMS)
Excerpt: (§1) Thermo Fisher Scientific SelectScreen™ Biochemical Kinase Profiling Service Z′-LYTE™ Screening Protocol and Assay Conditions Assay Theory
(§2) The […] biochemical assay employs a fluorescence-based, coupled-enzyme format and is based on the differential sensitivity of phosphorylated and non-phosphorylated peptides to proteolytic cleavage. The peptide substrate is labeled with two fluorophores—one at each end—that make up a FRET pair. In the primary reaction, the kinase transfers the gamma-phosphate of ATP to a single tyrosine, serine or threonine residue in a synthetic FRET-peptide. In the secondary reaction, a site-specific protease recognizes and cleaves non-phosphorylated FRET-peptides. Phosphorylation of FRET-peptides suppresses cleavage by the Development Reagent. Cleavage disrupts FRET between the donor (i.e., coumarin) and acceptor (i.e., fluorescein) fluorophores on the FRET-peptide, whereas uncleaved, phosphorylated FRET-peptides maintain FRET. A ratiometric method, which calculates the ratio (Emission Ratio=Coumarin emission (445 nm)/Fluorescein emission (520 nm)) of donor emission to acceptor emission after excitation of the donor fluorophore at 400 nm, is used to quantitate reaction progress, as shown in the equation below. A significant benefit of this ratiometric method for quantitating reaction progress is the elimination of well-to-well variations in FRET-peptide concentration and signal intensities. As a result, the assay yields very high Z′-factor values (>0.7) at a low percent phosphorylation. Both cleaved and uncleaved FRET-peptides contribute to the fluorescence signals and therefore to the Emission Ratio. The extent of phosphorylation of the FRET-peptide can be calculated from the Emission Ratio. The Emission Ratio will remain low if the FRET-peptide is phosphorylated (i.e., no kinase inhibition) and will be high if the FRET-peptide is non-phosphorylated (i.e., kinase inhibition).
(§3) The Test Compounds are screened in 1% DMSO (final) in the well. For 10 point titrations, 3-fold serial dilutions are conducted from the starting concentration of the customer's choosing.
(§4) All Peptide/Kinase Mixtures are diluted to a 2× working concentration in the appropriate Kinase Buffer (see section Kinase Specific Assay Conditions for a complete description).
(§5) All ATP Solutions are diluted to a 4× working concentration in Kinase Buffer (50 mM HEPES pH 7.5, 0.01% BRIJ-35, 10 mM MgCl2, 1 mM EGTA). ATP Km apparent is previously determined using a Z″-LYTE assay.
(§6) The Development Reagent is diluted in Development Buffer (see section Kinase-Specific Assay Conditions—Direct and Cascade for a complete description).
(§7) Bar-coded Corning, low volume NBS, black 384-well plate (Corning Cat. #4514) • 1. 100 nL—100× Test Compound in 100% DMSO • 2. 2.4 μL—Kinase buffer • 3. 5 μL—2× Peptide/Kinase Mixture • 4. 2.5 μL—4×ATP Solution • 5. 30—second plate shake • 6. 60—minute Kinase Reaction incubation at room temperature • 7. 5 μL—Development Reagent Solution • 8. 30—second plate shake • 9. 60—minute Development Reaction incubation at room temperature • 10. Read on fluorescence plate reader and analyze the data Z′-LYTE Assay Controls
(§8) SelectScreen Kinase Profiling Service uses XLfit from IDBS. The dose response curve is curve fit to model number 205 (sigmoidal dose-response model).
The 2×CSF1R (FMS)/Tyr 01 mixture is prepared in 50 mM HEPES pH 7.5, 0.01% BRIJ-35, 10 mM MgCl2, 1 mM EGTA. The final 10 μL Kinase Reaction consists of 0.2-40 ng CSF1R (FMS) and 2 μM Tyr 01 in 50 mM HEPES pH 7.5, 0.01% BRIJ-35, 10 mM MgCl2, 1 mM EGTA. After the 1 hour Kinase Reaction incubation, 5 μL of a 1:256 dilution of Development Reagent B is added.

[2] = target: T1, MAP4K2 (GCK) (Homo sapiens, UniProt Q12851); test: Z'-LYTE SelectScreen biochemical kinase assay MAP4K2 (GCK)
T1 sequence (Q12851 1-820): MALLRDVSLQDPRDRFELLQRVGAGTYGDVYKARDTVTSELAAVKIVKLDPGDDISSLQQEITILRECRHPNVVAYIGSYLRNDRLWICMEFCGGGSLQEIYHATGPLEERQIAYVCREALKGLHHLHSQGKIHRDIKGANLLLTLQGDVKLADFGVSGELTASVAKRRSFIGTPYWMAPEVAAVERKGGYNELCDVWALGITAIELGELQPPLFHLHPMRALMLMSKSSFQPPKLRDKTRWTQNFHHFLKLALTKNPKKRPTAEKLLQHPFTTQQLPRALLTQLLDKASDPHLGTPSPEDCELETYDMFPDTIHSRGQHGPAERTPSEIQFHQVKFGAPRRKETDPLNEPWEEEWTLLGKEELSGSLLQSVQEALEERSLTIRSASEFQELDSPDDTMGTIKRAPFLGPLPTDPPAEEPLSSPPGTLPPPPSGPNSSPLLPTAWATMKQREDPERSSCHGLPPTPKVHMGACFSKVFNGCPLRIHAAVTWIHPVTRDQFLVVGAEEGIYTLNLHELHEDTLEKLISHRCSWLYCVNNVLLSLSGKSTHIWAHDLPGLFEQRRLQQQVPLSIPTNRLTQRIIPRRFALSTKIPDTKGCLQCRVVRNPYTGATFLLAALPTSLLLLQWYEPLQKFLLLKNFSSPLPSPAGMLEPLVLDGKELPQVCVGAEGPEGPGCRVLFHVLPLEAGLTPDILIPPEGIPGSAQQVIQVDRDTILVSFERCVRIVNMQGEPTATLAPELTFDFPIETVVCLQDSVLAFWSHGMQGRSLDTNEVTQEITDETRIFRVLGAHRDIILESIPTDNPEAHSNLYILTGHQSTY
Excerpt: as §1, §2, §3, §4, §5, §6, §7, §8
The 2×MAP4K2 (GCK)/Ser/Thr 07 mixture is prepared in 50 mM HEPES pH 7.5, 0.01% BRIJ-35, 10 mM MgCl2, 1 mM EGTA. The final 10 μL Kinase Reaction consists of 0.11-3 ng MAP4K2 (GCK) and 2 μM Ser/Thr 07 in 50 mM HEPES pH 7.5, 0.01% BRIJ-35, 10 mM MgCl2, 1 mM EGTA. After the 1 hour Kinase Reaction incubation, 5 μL of a 1:45000 dilution of Development Reagent A is added.

[3] = 10 μmolar compound concentration, ATP at Km app, read-out: CSF1R (FMS) inhibition
[4] = read-out: % Inhibition mean CSF1R (FMS)
[5] = 10 μmolar compound concentration, ATP at Km app, read-out: MAP4K2 (GCK) inhibition
[6] = read-out: % Inhibition mean MAP4K2 (GCK)

CSF1R (FMS), sequence (P07333 20-972): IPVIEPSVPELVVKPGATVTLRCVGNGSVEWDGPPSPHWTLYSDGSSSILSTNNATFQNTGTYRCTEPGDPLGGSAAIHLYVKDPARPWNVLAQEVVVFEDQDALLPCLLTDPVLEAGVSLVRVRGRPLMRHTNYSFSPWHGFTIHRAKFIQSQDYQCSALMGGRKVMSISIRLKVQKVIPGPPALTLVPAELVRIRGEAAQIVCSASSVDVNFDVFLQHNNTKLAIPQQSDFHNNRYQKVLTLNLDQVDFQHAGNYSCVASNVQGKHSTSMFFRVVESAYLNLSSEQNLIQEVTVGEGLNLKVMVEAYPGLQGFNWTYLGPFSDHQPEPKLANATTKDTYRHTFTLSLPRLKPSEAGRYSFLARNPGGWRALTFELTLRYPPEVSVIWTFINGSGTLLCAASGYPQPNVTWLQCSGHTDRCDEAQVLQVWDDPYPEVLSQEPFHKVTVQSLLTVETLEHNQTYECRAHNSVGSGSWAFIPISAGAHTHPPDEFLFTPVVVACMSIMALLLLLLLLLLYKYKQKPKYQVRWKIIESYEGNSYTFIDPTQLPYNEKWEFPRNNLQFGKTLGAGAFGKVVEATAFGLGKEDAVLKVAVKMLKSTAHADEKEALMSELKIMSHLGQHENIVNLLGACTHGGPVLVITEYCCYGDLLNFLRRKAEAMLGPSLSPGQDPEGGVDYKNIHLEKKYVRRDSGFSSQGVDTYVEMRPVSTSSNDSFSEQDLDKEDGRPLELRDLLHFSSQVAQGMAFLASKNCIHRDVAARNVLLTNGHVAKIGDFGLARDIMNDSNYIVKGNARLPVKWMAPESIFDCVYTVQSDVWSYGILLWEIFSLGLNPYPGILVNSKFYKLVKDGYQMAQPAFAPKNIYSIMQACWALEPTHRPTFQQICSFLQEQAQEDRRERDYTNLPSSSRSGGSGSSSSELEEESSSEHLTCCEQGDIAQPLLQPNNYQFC

inhibition at 10 µM [1, 3] [%]	inhibition at 10 µM [1, 4] [%]	inhibition at 10 µM [2, 5] [%]	inhibition at 10 µM [2, 6] [%]	inhibition at 10 µM ([1]; read-out: % Inhibition mean) [%]	inhibition at 10 µM ([2]; read-out: % Inhibition mean) [%]	Compound
40 to 80	43	< 40	26	–	–	Cc1cc(F)ccc1-c1cccn2nc(NC3CCc4c(cnn4C(C)C)C3)nc12 (stereo not drawn) [Example 44, [8-(4-fluoro-2-methyl-phenyl)-[1,2,4]triazolo[1,5-a]pyridine-2-yl]-(1-isopropyl-4,5,6,7-tetrahydro-1H-indazol-5-yl)-amine]
< 40	9	< 40	22	–	–	CCn1nnc2c1CCC(Nc1nc3c(-c4ccc(F)cc4C)cccn3n1)C2 (stereo not drawn) [Example 51, (1-Ethyl-4,5,6,7-tetrahydro-1H-benzotriazol-5-yl)-[8-(4-fluoro-2-methyl-phenyl)-[1,2,4]triazolo[1,5-a]pyridine-2-yl]-amine]
40 to 80	79	40 to 80	49	–	–	CCn1ncc2c1CCC(Nc1nc3c(-c4cncc(Cl)c4)cccn3n1)C2 (stereo not drawn) [Example 73, [8-(5-Chloro-pyridin-3-yl)-[1,2,4]triazolo[1,5-a]pyridine-2-yl]-(1-ethyl-4,5,6,7-tetrahydro-1H-indazol-5-yl)-amine]
> 80	–	> 80	–	95	99	CC1(C)NC(=O)c2ccc(Nc3nc4c(-c5cccc(F)c5)cccn4n3)cc21 [Cpd. 302 in WO09155551, reference compound]
40 to 80	72	< 40	13	–	–	CCn1ncc2c1CCC(Nc1nc3c(-c4ccccc4)cccn3n1)C2 (stereo not drawn) [Example 57, (1-Ethyl-4,5,6,7-tetrahydro-1H-indazol-5-yl)-(8-phenyl-[1,2,4]triazolo[1,5-a]pyridine-2-yl)-amine]
< 40	18	< 40	12	–	–	CCn1ncc2c1CC[C@H](Nc1nc3c(-c4ccc(F)c(Cl)c4)cccn3n1)C2 [Example S-61, (S)-[8-(3-Chloro-4-fluoro-phenyl)-[1,2,4]triazolo[1,5-a]pyridine-2-yl]-(1-ethyl-4,5,6,7-tetrahydro-1H-indazol-5-yl)-amine]
40 to 80	40	< 40	24	–	–	Cc1cc(F)ccc1-c1cccn2nc(NC3CCc4c(cnn4CC(C)C)C3)nc12 (stereo not drawn) [Example 45, [8-(4-fluoro-2-methyl-phenyl)-[1,2,4]triazolo[1,5-a]pyridine-2-yl]-(1-isobutyl-4,5,6,7-tetrahydro-1H-indazol-5-yl)-amine]
< 40	34	< 40	21	–	–	CCn1ncc2c1CCC(Nc1nc3c(-c4ccc(F)cc4C)cccn3n1)C2 (stereo not drawn) [Example 42, (1-Ethyl-4,5,6,7-tetrahydro-1H-indazol-5-yl)-[8-(4-fluoro-2-methyl-phenyl)-[1,2,4]triazolo[1,5-a]pyridine-2-yl]-amine]
< 40	18	< 40	3	–	–	CCn1ncc2c1CC[C@@H](Nc1nc3c(-c4ccc(F)c(Cl)c4)cccn3n1)C2 [Example R-61, (R)-[8-(3-Chloro-4-fluoro-phenyl)-[1,2,4]triazolo[1,5-a]pyridine-2-yl]-(1-ethyl-4,5,6,7-tetrahydro-1H-indazol-5-yl)-amine]
< 40	27	< 40	27	–	–	CCc1nn(C)c2c1CCC(Nc1nc3c(-c4ccc(F)cc4C)cccn3n1)C2 (stereo not drawn) [Example 54, (3-Ethyl-1-methyl-4,5,6,7-tetrahydro-1H-indazol-6-yl)-[8-(4-fluoro-2-methyl-phenyl)-[1,2,4]triazolo[1,5-a]pyridine-2-yl]-amine]
40 to 80	48	< 40	14	–	–	CCn1ncc2c1CCC(Nc1nc3c(-c4cccnc4)cccn3n1)C2 (stereo not drawn) [Example 63, (1-Ethyl-4,5,6,7-tetrahydro-1H-indazol-5-yl)-(8-pyridin-3-yl-[1,2,4]triazolo[1,5-a]pyridine-2-yl)-amine]
> 80	83	< 40	7	–	–	CCn1ncc2c1CCC(Nc1nc3c(-c4cncc(OC)c4)cccn3n1)C2 (stereo not drawn) [Example 70, (1-Ethyl-4,5,6,7-tetrahydro-1H-indazol-5-yl)-[8-(5-methoxy-pyridin-3-yl)-[1,2,4]triazolo[1,5-a]pyridine-2-yl]-amine]
< 40	24	< 40	19	–	–	CCCCn1ncc2c1CCC(Nc1nc3c(-c4ccc(F)cc4C)cccn3n1)C2 (stereo not drawn) [Example 46, [8-(4-fluoro-2-methyl-phenyl)-[1,2,4]triazolo[1,5-a]pyridine-2-yl]-(1-butyl-4,5,6,7-tetrahydro-1H-indazol-5-yl)-amine]
< 40	34	< 40	17	–	–	CCn1ncc2c1C(C)CC(Nc1nc3c(-c4cc(F)c(F)c(F)c4)cccn3n1)C2 (stereo not drawn) [Example 49, (1-Ethyl-7-methyl-4,5,6,7-tetrahydro-1H-indazol-5-yl)-[8-(3,4,5-trifluoro-phenyl)-[1,2,4]triazolo[1,5-a]pyridine-2-yl]-amine]
40 to 80	66	< 40	28	–	–	CCn1ncc2c1CCC(Nc1nc3c(-c4cnccc4OC)cccn3n1)C2 (stereo not drawn) [Example 68, (1-Ethyl-4,5,6,7-tetrahydro-1H-indazol-5-yl)-[8-(4-methoxy-pyridin-3-yl)-[1,2,4]triazolo[1,5-a]pyridine-2-yl]-amine]
